According to patent US20230096028A1, “BICYCLIC HETEROCYCLYL COMPOUNDS AND USES THEREOF” (Revolution Medicines, Inc., priority 2019, published 2023):

Assays:
[1] = target: T1, SOS1 catalytic domain (residues 564-1049) (Homo sapiens, UniProt Q07889); assay: Potency Assay: binding affinity to SOS1 using Surface Plasmon Resonance (SPR); parameters: SOS1 catalytic domain (residues 564-1049) immobilized on a sensor chip; conditions: immobilized SOS1 catalytic domain (residues 564-1049), read-out: SOS1 SPR Equilibrium Kd
T1 sequence (Q07889 564-1049): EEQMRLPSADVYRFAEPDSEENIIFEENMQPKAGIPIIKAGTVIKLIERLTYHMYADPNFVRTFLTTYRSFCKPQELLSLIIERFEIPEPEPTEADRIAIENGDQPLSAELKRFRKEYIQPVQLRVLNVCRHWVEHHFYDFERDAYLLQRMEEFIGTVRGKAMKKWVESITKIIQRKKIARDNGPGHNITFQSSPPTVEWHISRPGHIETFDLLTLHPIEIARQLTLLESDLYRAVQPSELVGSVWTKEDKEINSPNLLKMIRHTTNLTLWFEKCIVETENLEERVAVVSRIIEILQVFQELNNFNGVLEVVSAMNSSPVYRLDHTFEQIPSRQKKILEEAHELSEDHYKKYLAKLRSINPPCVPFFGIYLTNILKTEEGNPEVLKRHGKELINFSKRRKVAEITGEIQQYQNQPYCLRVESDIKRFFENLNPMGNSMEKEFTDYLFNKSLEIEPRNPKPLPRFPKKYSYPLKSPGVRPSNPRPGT
In short: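 Avi-tagged SOS1 catalytic domain captured on streptavidin chip (~6000 RU) in 0.01 M HEPES, 0.15 M NaCl, 0.05% P20. Compound dilution series flowed at 50 μL/min for association, then buffer for dissociation, with double reference subtraction. Kd derived from end-of-association binding response plotted against concentration.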

[2] = system: PC-9 cells (EGFR Ex19Del); assay: Potency Assay: pERK (SOS1 pERK IC50 Assay, AlphaLISA SureFire Ultra p-ERK1/2); format: cell-based; conditions: Homo sapiens; PC-9 cells (EGFR Ex19Del), 1 hour incubation, AlphaLISA p-ERK1/2; read-out: SOS1 pERK IC50
In short: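 PC-9 (EGFR Ex19Del) cells plated overnight, then treated 1 h at 37° C. with 10-point 3-fold dilutions (top 10 μM final) in duplicate. Lysate pERK1/2 measured by AlphaLISA SureFire Ultra; IC50 from 4-parameter sigmoidal fit.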

[3] = target: T1, SOS1 catalytic domain (residues 564-1049); assay: Mode of Action Assay: inhibition of SOS1 nucleotide exchange activity (SOS1 TR-FRET IC50 Assay)

Row | Kd [1] [nM] | IC50 [2] [nM] | IC50 [3] [nM] | Compound
1 | < 400 | > 1000 | < 1000 | C[C@@H](Nc1nc(Cl)nc2c1CN(C(=O)C1CCN(C3COC3)CC1)C2)c1cccc(C(F)F)c1F [Example 336]
2 | < 400 | > 1000 | < 1000 | C[C@@H](Nc1nc(Cl)nc2c1CN(C(=O)C1(C#N)CN(C)C1)C2)c1cccc(C(F)F)c1F [Example 337]
3 | < 400 | < 1000 | < 1000 | CC(C)N1CC(C)(C(=O)N2Cc3nc(Cl)nc(N[C@H](C)c4cccc(C(F)F)c4F)c3C2)C1 [Example 338]
4 | < 400 | < 1000 | < 1000 | C[C@@H](Nc1nc(Cl)nc2c1CN(C(=O)C1CN(C3COC3)C1)C2)c1cccc(C(F)F)c1F [Example 339]
5 | < 400 | < 1000 | < 1000 | COC1(C(=O)N2Cc3nc(Cl)nc(N[C@H](C)c4cccc(C(F)F)c4F)c3C2)CN(C2COC2)C1 [Example 340]
6 | < 400 | < 1000 | < 1000 | C[C@@H](Nc1nc(Cl)nc2c1CN(C(=O)C1(C)CCN(C3COC3)C1)C2)c1cccc(C(F)F)c1F (stereo partly drawn) [Example 341]
7 | < 400 | < 1000 | < 1000 | C[C@@H](Nc1nc(Cl)nc2c1CN(C(=O)C1(C)CN(CCF)C1)C2)c1cccc(C(F)F)c1F [Example 342]
8 | < 400 | < 1000 | < 1000 | COC1(C(=O)N2Cc3nc(Cl)nc(N[C@H](C)c4cccc(C(F)F)c4F)c3C2)CCN(CCF)CC1 [Example 343]
9 | < 400 | < 1000 | < 1000 | COC1(C(=O)N2Cc3nc(Cl)nc(N[C@H](C)c4cccc(C(F)F)c4F)c3C2)CCN(CC(F)(F)F)CC1 [Example 344]
10 | < 400 | > 1000 | < 1000 | C[C@@H](Nc1nc(CO)nc2c1CN(C(=O)N1CCOCC1)C2)c1cccc(C(F)F)c1F [Example 348, (R)-(4-((1-(3-(difluoromethyl)-2-fluorophenyl)ethyl)amino)-2-(hydroxymethyl)-5,7-dihydro-6H-pyrrolo[3,4-d]pyrimidin-6-yl)(morpholino)methanone]
11 | < 400 | < 1000 | < 1000 | COC1(C(=O)N2Cc3nc(CN)nc(N[C@H](C)c4cccc(C(F)(F)F)c4)c3C2)CCOCC1 [Example 350, (R)-(2-(aminomethyl)-4-((1-(3-(trifluoromethyl)phenyl)ethyl)amino)-5,7-dihydro-6H-pyrrolo[3,4-d]pyrimidin-6-yl)(4-methoxytetrahydro-2H-pyran-4-yl)methanone]
12 | < 400 | < 1000 | < 1000 | C[C@@H](Nc1nc(Cl)nc2c1CN(C(=O)N1CCNc3ncncc31)C2)c1cc(N)cc(C(F)(F)F)c1 [Example 354]
13 | < 400 | > 1000 | < 1000 | C[C@@H](Nc1nc(Cl)nc2c1CN(C(=O)N1CCN(C)CC1)C2)c1cccc(C(F)(F)CO)c1 [Example 355]
14 | < 400 | < 1000 | < 1000 | C[C@@H](Nc1nc(Cl)nc2c1CN(C(=O)N1CCNCC1)C2)c1cc(N)cc(C(F)(F)F)c1 [Example 356]
15 | < 400 | < 1000 | < 1000 | C[C@@H](Nc1nc(Cl)nc2c1CN(C(=O)N1CCN(C3COC3)CC1)C2)c1cccc(C(F)(F)CO)c1 [Example 357]
16 | < 400 | < 1000 | < 1000 | C[C@@H](Nc1nc(Cl)nc2c1CN(C(=O)N1CCNC(C(F)(F)F)C1)C2)c1cc(N)cc(C(F)(F)F)c1 (stereo partly drawn) [Example 359]
17 | < 400 | > 1000 | < 1000 | C[C@@H](Nc1nc(Cl)nc2c1CN(C(=O)N1C[C@H]3C[C@@H]1CN3)C2)c1cc(N)cc(C(F)(F)F)c1 [Example 360]
18 | < 400 | < 1000 | < 1000 | C[C@@H](Nc1nc(Cl)nc2c1CN(C(=O)N1CCNc3ncncc31)C2)c1cccc(C(F)(F)F)c1 [Example 362]
